Molecules are shown by their SMILES.

The target of the data set is ATP-dependent translocase ABCB1 (Homo sapiens, UniProt P08183). Put plainly: TP_TRANSPORTER: transepithelial transport (basal to apical) in MDR1-expressing LLC-PK1 cells. To be noted: pig. In kind it is functional, cell-based.
Chain of ATP-dependent translocase ABCB1 (P08183 whole entry): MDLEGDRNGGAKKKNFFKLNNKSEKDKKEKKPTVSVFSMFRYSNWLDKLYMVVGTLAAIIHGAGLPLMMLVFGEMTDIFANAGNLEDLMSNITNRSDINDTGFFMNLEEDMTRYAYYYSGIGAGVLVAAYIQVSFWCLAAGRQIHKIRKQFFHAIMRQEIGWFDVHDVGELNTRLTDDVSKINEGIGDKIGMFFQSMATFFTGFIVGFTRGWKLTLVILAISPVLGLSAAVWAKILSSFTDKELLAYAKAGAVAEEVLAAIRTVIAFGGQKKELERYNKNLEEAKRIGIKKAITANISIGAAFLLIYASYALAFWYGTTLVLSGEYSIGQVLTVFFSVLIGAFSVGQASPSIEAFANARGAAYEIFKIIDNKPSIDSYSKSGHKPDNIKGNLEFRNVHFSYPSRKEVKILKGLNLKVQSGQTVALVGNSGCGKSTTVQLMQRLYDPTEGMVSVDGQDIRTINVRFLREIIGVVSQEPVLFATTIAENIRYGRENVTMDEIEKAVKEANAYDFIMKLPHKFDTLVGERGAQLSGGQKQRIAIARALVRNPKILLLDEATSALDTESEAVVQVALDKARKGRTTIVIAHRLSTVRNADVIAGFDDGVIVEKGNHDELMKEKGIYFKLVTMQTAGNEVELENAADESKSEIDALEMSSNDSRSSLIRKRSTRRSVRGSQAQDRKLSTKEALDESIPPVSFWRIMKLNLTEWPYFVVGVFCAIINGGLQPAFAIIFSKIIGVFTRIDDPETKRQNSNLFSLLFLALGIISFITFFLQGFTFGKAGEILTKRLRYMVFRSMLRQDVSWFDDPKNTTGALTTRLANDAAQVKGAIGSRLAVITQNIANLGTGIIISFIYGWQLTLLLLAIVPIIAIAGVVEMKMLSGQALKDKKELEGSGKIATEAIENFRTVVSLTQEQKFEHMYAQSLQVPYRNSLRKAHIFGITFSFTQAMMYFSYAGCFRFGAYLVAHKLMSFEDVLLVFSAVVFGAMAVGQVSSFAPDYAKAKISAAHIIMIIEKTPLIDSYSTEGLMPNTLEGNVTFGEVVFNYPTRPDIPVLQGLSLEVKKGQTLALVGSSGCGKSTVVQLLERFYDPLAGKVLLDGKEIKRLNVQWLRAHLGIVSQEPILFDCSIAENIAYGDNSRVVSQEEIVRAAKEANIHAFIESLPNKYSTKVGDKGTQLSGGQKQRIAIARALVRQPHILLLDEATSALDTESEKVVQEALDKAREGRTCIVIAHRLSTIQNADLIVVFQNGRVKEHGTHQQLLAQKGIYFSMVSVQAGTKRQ

With `COc1cccc2c1C(=O)c1c(O)c3c(c(O)c1C2=O)C[C@@](O)(C(=O)CO)C[C@@H]3O[C@H]1C[C@H](N)[C@H](O)[C@H](C)O1` [DOXORUBICIN], the Activity entry was “substrate [+]”.
Under `C/C=C/C[C@@H](C)C(=O)[C@H]1C(=O)N[C@@H](C(C)C)C(=O)N(C)CC(=O)N(C)[C@@H](CC(C)C)C(=O)N[C@@H](C(C)C)C(=O)N(C)[C@@H](CC(C)C)C(=O)N[C@@H](C)C(=O)N[C@H](C)C(=O)N(C)[C@@H](CC(C)C)C(=O)N(C)[C@@H](CC(C)C)C(=O)N(C)[C@@H](C(C)C)C(=O)N1C` [VALSPODAR] stands “is not a substrate [-]”.

(Values after ChEMBL document CHEMBL2073840, “Inhibitory effects of a cyclosporin derivative, SDZ PSC 833, on transport of doxorubicin and vinblastine via human P-glycoprotein” (Jpn J Cancer Res, 1998).)
